Test results from patent US7790668B2, “2-methoxy-2,6-dimethyloctanal and its use as a fragrance ingredient” (Givaudan SA, priority 2005, dated 2010).

Experiment: Odour threshold concentration by using an olfactometer
Conditions: for Odour threshold concentration, geometric mean: olfactometer, forced-choice triangle presentation, group of 12 panelists, both compounds measured on the same day under identical conditions; for odour threshold concentration, times lower compared to 6-methoxy-2,6-dimethylheptanal (Methoxymelonal): ratio of the geometric mean thresholds vs the prior-art compound
Source text: The odour threshold concentration is defined as the lowest concentration of the vapour of an odorous material in the air which can be detected by smell. The concentration can be measured by standard methods known in the art by using either olfactometry means or sniff-bottles allowing panelists to smell the presented headspace.
The olfactometer functions on the principle of a linear dilution of an odorant in a carrier gas. The quantity of odorant displaced depends on its vapour pressure and the carrier gas flow. A constant flow of nitrogen, regulated by a flow regulator, carries the odorant from a sample container to a mixing chamber. There, the carrier gas-odour mixture is diluted with odourless air. From the mixing chamber one part of the diluted odorous air is allowed to flow via a fused silica capillary to the sniffing funnel. The flow rate through the capillary, which determines the dosage of odorous air from the mixing chamber into the sniffing funnel, depends on the opening of the valve which can be regulated via PC from 1 to 256 ml in binary steps. The final dilution of the odorous air sample occurs in the glass funnel by flushing them permanently with odourless air at a flow rate of 8 L/min. Forced-choice triangle presentation is achieved by a special automated channel setting device where only in one position of a switch the odorant delivering capillary enters in the sniffing funnel, whereas in the two other positions the capillary is positioned outside the funnel and where the effluent is sucked away. After each trial the channel setting is changed automatically and in a random order. The concentration is calculated from the odorants vapour pressure and from the dilution ratios that were applied in the olfactometer, assuming that vapour saturation is achieved in the sample generator. As a control the concentration was by sampling a known volume from the capillary effluent into a headspace filter and then determined. The panelist starts sniffing at the olfactometer at a concentration level at which he perceives the odorant at medium intensity. After three correct answers in three consecutive trials (or four correct ones of five trials) at the same level, stimulus concentration is decreased by a factor of two to the next lower level, and so on, until the panelist has reached his threshold level.
Under identical conditions the odour threshold concentration for 6-methoxy-2,6-dimethyloctanal and 6-methoxy-2,6-dimethylheptanal was measured and compared by a group of 12 panelists. The sequence with which of the two compounds the panelist started smelling was alternated. Both compounds were measured on the same day and the following data were obtained: […]

SMILES | Odour threshold concentration, geometric mean [ng/L] | odour threshold concentration, times lower compared to 6-methoxy-2,6-dimethylheptanal (Methoxymelonal) | odour threshold concentration, times lower compared to 6-methoxy-2,6-dimethylheptanal (Methoxymelonal) (listed as compound of the present invention) [times]
CCC(C)(CCCC(C)C=O)OC (stereo not shown) [6-methoxy-2,6-dimethyloctanal] | 0.78 | about 2.5 times | 2.46
COC(C)(C)CCCC(C)C=O (stereo not shown) [6-methoxy-2,6-dimethylheptanal, reference compound] | 1.92 |  | 
